Test results as given in patent US10406230B2, “Exendin-4 analogue pegylated with polyethylene glycol or derivative thereof, preparation method thereof, and pharmaceutical composition for preventing or treating diabetes, containing same as active ingredient” (priority 2011, dated 2019).

How the values were obtained:
[1] = test system: Type 2 diabetic C57BL/6 db/db mice; experiment: Low blood glucose sustainability in non-fasting type 2 diabetic mice; format: in vivo; settings: 25 nmol/kg intraperitoneal
Protocol: The following experiment was performed to evaluate low blood glucose sustainability of C40 site specific PEG bound exendin-4 composition according to the present invention in Type 2 diabetic mice.
Type 2 diabetic C57BL/6 db/db mice (male, 4-5 weeks old, Central Lab. Animal Inc.) were used, and animals were exposed to light at 12 hours cycle and were grown after having stabilized two week by allowing free intake of foods and water. The experimental animals were managed following the guideline of National Institute of Health (NIH) and authorized by Institutional Animal Care and Use Committee of Sungkyunkwan University, and the experiment was performed humanely.
C40-PEG5K-Ex4 (linear), C40-PEG20K-Ex4 (linear), C40-PEG20K-Ex4 (branch), C40-PEG23K-Ex4 (trimer) and C40-PEG50K-Ex4 (trimer) prepared from the Example 1 to 5 and Lys^27-PEG20K-Ex4 prepared in Comparative example 1b were intraperitoneally injected with 25 nmol/kg dose to male db/db mice (6-7 weeks old), blood was collected from tail vein of mice following the float time: 0, 0.5, 1, 2, 3, 4, 6, 8, 12, 24, 36, 48, 60, 72, 96 hours and blood glucose concentration was measured with ACCU-CHEK Sensor (Roche Diagnostics Corp., USA). Afterwards, the low blood glucose sustaining time (blood glucose level<8.35 mmol/l (150 mg/dL)) was additionally measured and shown in Table 4 and FIG. 12. In the present experiment, exendin-4 was used as the control group.

[2] = molecular target: T1, GLP-1 receptor (GLP-1R) (Rattus norvegicus, UniProt P32301); experiment: RIN-m5F cell receptor binding affinity (I-125 exendin-4 displacement)
T1 construct: Islet cells (RIN-m5F, ATCC, Manassas, Va.) expressing vast quantity of GLP-1 receptor (GLP-1R) were inoculated in 12-wells plates; host or cells: RIN-m5F
T1 sequence (P32301 22-463): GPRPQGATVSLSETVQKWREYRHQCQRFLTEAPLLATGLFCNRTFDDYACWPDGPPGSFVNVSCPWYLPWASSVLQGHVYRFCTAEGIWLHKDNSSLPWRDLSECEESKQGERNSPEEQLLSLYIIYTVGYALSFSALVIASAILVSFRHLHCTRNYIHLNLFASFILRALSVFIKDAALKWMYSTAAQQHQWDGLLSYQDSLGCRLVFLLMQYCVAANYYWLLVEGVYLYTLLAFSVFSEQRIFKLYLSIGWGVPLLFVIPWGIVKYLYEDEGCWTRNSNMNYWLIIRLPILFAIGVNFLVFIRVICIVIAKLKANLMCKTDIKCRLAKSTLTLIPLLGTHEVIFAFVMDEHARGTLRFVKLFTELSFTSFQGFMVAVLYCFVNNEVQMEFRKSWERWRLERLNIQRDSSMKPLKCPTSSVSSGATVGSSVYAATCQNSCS
Protocol: Thorough washing was done with PBS including […] bovine serum albumin after two hours.

Substance | Blood glucose level (average) ([1]; time 0 h) | Blood glucose level (average) ([1]; time 0.5 h) | Blood glucose level (average) ([1]; time 1 h) | Blood glucose level (average) ([1]; time 2 h) | Blood glucose level (average) ([1]; time 3 h) | Blood glucose level (average) ([1]; time 4 h) | Blood glucose level (average) ([1]; time 6 h) | Blood glucose level (average) ([1]; time 8 h) | Blood glucose level (average) ([1]; time 12 h) | Blood glucose level (average) ([1]; time 24 h) | Blood glucose level (average) ([1]; time 36 h) | Blood glucose level (average) ([1]; time 48 h) | Blood glucose level (average) ([1]; time 60 h) | IC50 ([2]; RIN-m5F cells, competition with 30 pM I-125 exendin-4 (9-39), 2 hours) | activity (GLP-1 receptor affinity) better than Comparative example 1a (Lys^12-PEG5K-Ex4) ([2]; ratio of IC50 values) | activity (GLP-1 receptor affinity) better than Comparative example 1b (Lys^27-PEG5K-Ex4) ([2]; ratio of IC50 values) | activity (GLP-1 receptor affinity) better than Comparative example 2 (Nter-PEG5K-Ex4) ([2]; ratio of IC50 values) | low blood glucose sustaining time (time required for blood glucose level increasing back to 8.35 mmol/l) ([1]; blood glucose level<8.35 mmol/l (150 mg/dL)) | Blood glucose level (average) ([1]; time 72 h)
1b (Lys^27-PEG20K-Ex4): exendin-4 (SEQ ID NO: 2) PEGylated at Lys27 amine with 20 kDa mPEG-SPA [reference compound] | 24.13 mmol/L | 7.97 mmol/L | 6.56 mmol/L | 5.24 mmol/L | 4.22 mmol/L | 4.29 mmol/L | 4.85 mmol/L | 5.13 mmol/L | 5.40 mmol/L | 12.98 mmol/L | 17.34 mmol/L | 20.45 mmol/L | 23.02 mmol/L |  |  |  |  |  | 
Example 1: exendin-4-Cys (cysteine at C-terminal #40 site, SEQ ID NO: 1) bound with linear 5 kDa mPEG-MAL | 23.38 mmol/L | 7.62 mmol/L | 7.36 mmol/L | 5.09 mmol/L | 4.46 mmol/L | 4.93 mmol/L | 5.73 mmol/L | 9.04 mmol/L | 16.2 mmol/L | 21.1 mmol/L |  |  |  | 1.04 nM | 6 times | twice | 120 times |  | 
Example 2: exendin-4-Cys (SEQ ID NO: 1) bound at C40 with linear 20 kDa mPEG-MAL | 24.28 mmol/L | 7.96 mmol/L | 6.13 mmol/L | 5.29 mmol/L | 4.18 mmol/L | 4.34 mmol/L | 4.9 mmol/L | 4.57 mmol/L | 5.86 mmol/L | 8.54 mmol/L | 11.47 mmol/L | 15.34 mmol/L | 20.45 mmol/L |  |  |  |  | 23.2 h | 23.02 mmol/L
Example 3: exendin-4-Cys (SEQ ID NO: 1) bound at C40 with branch type 20 kDa mPEG-MAL | 24.44 mmol/L | 7.86 mmol/L | 6.89 mmol/L | 5.04 mmol/L | 4.15 mmol/L | 4.66 mmol/L | 4.67 mmol/L | 5.11 mmol/L | 7.89 mmol/L | 15.09 mmol/L | 20.14 mmol/L | 24.21 mmol/L | 23.76 mmol/L |  |  |  |  |  | 
